Measured values: ChEMBL document CHEMBL1201862, “PubChem BioAssay data set” (2004)
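Assay format: 96-well plates, 48-hour exposure. GI50 is the concentration that inhibits growth by half.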 The source made the active and inactive calls. No stated cut-off is given here; in the data, active = GI50 up to about 1.1 µM and inactive = higher.

Columns and labels:
Experiment in all cases: NCI tumour cell line growth inhibition, 48 h
[1] = tested on: Hs-578T
[2] = tested on: DMS-114
[3] = tested on: DMS-273
[4] = tested on: M19-MEL
[5] = tested on: SNB-78
[6] = tested on: XF498
[7] = tested on: DLD-1
[8] = tested on: RXF 631
[9] = tested on: HOP-18

Row | Structure (SMILES) | GI50 [1] | GI50 [2] | GI50 [3] | GI50 [4] | GI50 [5] | further results
1 | COc1ccc(NC(=O)CC(=O)NNC(Sc2ccccc2)c2cc(/N=N/c3ccc(Br)cc3)ccc2O)cc1 (stereo not drawn) | > 10 µM (inactive) | – | – | – | – | –
2 | NS(=O)(=O)c1cc(S(N)(=O)=O)c(NC(=O)Nc2ccc(Cl)c(Cl)c2)c(Cl)c1Cl | > 100 µM (inactive) | – | – | – | – | –
3 | CSC1=NC(C(N)=O)C(N)N1C (stereo not drawn) | > 100 µM (inactive) | – | – | – | – | –
4 | COC(=O)[C@]12CSCN1C(=O)C(C(C)=O)=NN2C(=O)[C@](OC)(c1ccccc1)C(F)(F)F | – | > 100 µM (inactive) | > 100 µM (inactive) | > 100 µM (inactive) | > 100 µM (inactive) | GI50 [6]: > 100 µM (inactive)
5 | O=C(Nc1ccc(Cl)cc1)/C(Cc1cccc[n+]1[O-])=N\Nc1ccc([N+](=O)[O-])cc1[N+](=O)[O-] | – | > 100 µM (inactive) | > 100 µM (inactive) | > 100 µM (inactive) | > 100 µM (inactive) | GI50 [7]: > 100 µM (inactive); GI50 [8]: > 100 µM (inactive)
6 | C=CC1(CC)/C(=N\O)C(CC)(CC)C(=O)N1O (stereo not drawn) | – | > 100 µM (inactive) | > 100 µM (inactive) | > 100 µM (inactive) | > 100 µM (inactive) | GI50 [7]: > 100 µM (inactive); GI50 [6]: 48.9 µM (inactive)
7 | Cc1cc(C)c2c(=N)c3ccccc3n(CCCCCCO)c2n1 | 3.03 µM (inactive) | – | – | – | – | –
8 | N#Cc1cc([N+](=O)[O-])ccc1NC(=O)/C(=N/N)C(C(=O)c1ccc(Cl)c(Cl)c1)C1OC(=O)c2ccccc21 (stereo not drawn) | – | 28.4 µM (inactive) | – | 26.9 µM (inactive) | 75 µM (inactive) | GI50 [7]: 35 µM (inactive)
9 | Cc1ccc(/N=N/C2S/C(=C(\C#N)c3nc4ccccc4[nH]3)N(c3ccccc3)C2=O)cc1 (stereo not drawn) | – | 65.5 µM (inactive) | > 100 µM (inactive) | > 100 µM (inactive) | > 100 µM (inactive) | GI50 [7]: > 100 µM (inactive); GI50 [6]: 30 µM (inactive)
10 | CC(=O)OC(C)(C)C1CCC(C)(C(O)COc2ccc(CCNC(=O)c3ccccc3)cc2)O1 (stereo not drawn) | – | 12.5 µM (inactive) | 33.3 µM (inactive) | 37.3 µM (inactive) | 48.3 µM (inactive) | GI50 [7]: 31.5 µM (inactive); GI50 [9]: > 100 µM (inactive); GI50 [6]: 10.5 µM (inactive)
11 | CCCCCCC1CCC2CCCC(C)N12 (stereo not drawn) | – | 37 µM (inactive) | 27.4 µM (inactive) | 27.7 µM (inactive) | – | GI50 [9]: 29.2 µM (inactive); GI50 [6]: 19.4 µM (inactive)
12 | COC(=O)/C(=C/c1ccc(OC)cc1)C(C(=O)O)=C1CCCCC1 | – | – | > 100 µM (inactive) | > 100 µM (inactive) | > 100 µM (inactive) | GI50 [7]: > 100 µM (inactive); GI50 [8]: > 100 µM (inactive); GI50 [6]: > 100 µM (inactive)
13 | Cc1cc(S(=O)(=O)Nc2n[nH]c(-c3ccc(Cl)cn3)n2)c(S)cc1Cl | 27.9 µM (inactive) | – | – | – | – | –
14 | CN(C)c1ccc(/C=N/C23CC4CC(CC(C4)C2)C3)cc1 | – | > 100 µM (inactive) | > 100 µM (inactive) | > 100 µM (inactive) | > 100 µM (inactive) | –
15 | Cc1cc2c(c(C(N)=O)c1C)-c1cccc(Cl)c1C2=O | – | > 100 µM (inactive) | > 100 µM (inactive) | – | > 100 µM (inactive) | GI50 [7]: > 100 µM (inactive); GI50 [8]: > 100 µM (inactive); GI50 [6]: > 100 µM (inactive)
16 | CCOP(=O)(C=C=C1CCC2[C@@H]3CCc4cc(OC)ccc4C3CC[C@]12C)OCC (stereo partly drawn) | 20.5 µM (inactive) | – | – | – | – | –

Row | Structure (SMILES) | GI50 [1] | GI50 [2] | GI50 [3] | GI50 [4] | GI50 [5] | further results
17 | C/C(=N\Nc1nc2ccccc2n1C)c1ccc2ccccc2n1 | 15.4 µM (inactive) | – | – | – | – | –
18 | O=C(O)c1cc2ccccc2oc1=O [COUMARIN-3-CARBOXYLIC ACID] | > 100 µM (inactive) | – | – | – | – | –
19 | COc1cc(/C=C2\N=C(c3ccccc3)N(c3ccc(C(=O)c4ccccc4)cc3N3C(=O)/C(=C/c4ccc(O)c(OC)c4)N=C3c3ccccc3)C2=O)ccc1O | 10.1 µM (inactive) | – | – | – | – | –
20 | O=C(/C=C/c1c[nH]c2ccccc12)c1ccccc1O | 22.6 µM (inactive) | – | – | – | – | –
21 | Brc1ccc(N2C[N+](c3ccc(Br)cc3)=NC(c3ccccc3)=N2)cc1.[O-][Cl+3]([O-])([O-])[O-] | – | 25.1 µM (inactive) | 50.1 µM (inactive) | > 100 µM (inactive) | > 100 µM (inactive) | GI50 [7]: 59.8 µM (inactive); GI50 [9]: > 100 µM (inactive); GI50 [6]: > 100 µM (inactive)
22 | CCCCc1ccc2[n+](c1)C(C(=O)OCC)=PC2 (stereo not drawn) | 66.7 µM (inactive) | – | – | – | – | –
23 | CC1CC(C)C2=NOS3=C2C1=NO3 (stereo not drawn) | > 100 µM (inactive) | – | – | – | – | –
24 | CC(C)SC(C)(NC(=O)C1C(C)(C)CCC1(C)C)C(=O)O (stereo not drawn) | > 100 µM (inactive) | – | – | – | – | –
25 | CC1(C)CCCCC1/C=C/C(CC(O)(C(F)(F)F)C(F)(F)F)=N\Nc1ccc([N+](=O)[O-])cc1[N+](=O)[O-] (stereo not drawn) | 0.575 µM (active) | – | – | – | – | –
26 | COc1ccc2c(c1)c(CC(=O)O)c(C)n2C(=O)c1ccc(Cl)cc1 | > 100 µM (inactive) | – | – | – | – | –
27 | O=[As](O)(O)c1ccc(Cc2ccc([As](=O)(O)O)cc2)cc1 | 1.33 µM (inactive) | – | – | – | – | –
28 | c1cc(-c2cscc2-c2ccsc2)cs1 | 17.4 µM (inactive) | – | – | – | – | –
29 | COC1CC(C)([N+](=O)[O-])C(O)C(C)O1 (stereo not drawn) | > 100 µM (inactive) | – | – | – | – | –
30 | Cc1ccc(O)c(C2=CC(c3cccc(Cl)c3)SC(=N)N2)c1 (stereo not drawn) | 19.9 µM (inactive) | – | – | – | – | –
31 | Nc1ccc2nc(-c3cccc(Cl)c3)cc(O)c2c1 | 6.79 µM (inactive) | – | – | – | – | –
32 | N#Cc1c(N)oc(-c2ccc([N+](=O)[O-])cc2)c1C#N | 25.6 µM (inactive) | – | – | – | – | –
